Laboratory results: article PMC6492175, “Glio‐ and neuro‐protection by prosaposin is mediated by orphan G‐protein coupled receptors GPR37L1 and GPR37” (Glia, 2018)
Read-outs that look alike come from different tables or passages of the source.

How the values were obtained:
astrocytes [1] = assay: Scratch wound assay (astrocyte migration); assay type: cell-based, Wistar rat; settings: for wound closure: monitored 72 hr, n = 5, triplicates; for ability of astrocytes to close the wound: PDM, n = 6, triplicates
Procedure: A wound recovery assay was carried out to analyze the migration of astrocytes using the IncuCyte system (Essen BioScience Inc., Ann Arbor, MI). Primary astrocytes were seeded in ImageLock 96‐well plates (4,379, Essen BioScience) at a density of 4 × 10^4 per well. After 24 hr, standardized and reproducible (700–800 μm wide) scratch “wounds” were created in all wells using a dedicated device. Cultures were exposed to different testing conditions, for example, stressors, and were maintained and imaged at hourly intervals up to 72 hr.
Cell density was measured in the scratch area and compared to undisrupted adjacent monolayer. Relative wound density (%), a measure of wound recovery, was calculated using the formula: Relative wound density (%) = (Density of wound region at certain time point – Initial density of wound region)/(Density of intact cell region at certain time point − Initial density of wound) × 100%.

astrocytes [2] = assay: DAPI staining, astrocyte cell number; assay type: cell-based, Wistar rat; settings: for cell numbers (DAPI) vs control: n = 4, triplicates, Dunnett's
Procedure: Astrocytes were seeded in 96‐well plate (1 × 10^4 per well) and fixed in 4% paraformaldehyde for 5 min, washed in PBS three times for 5 min each time before and after incubating with 1 μg/mL DAPI for 10 min. Round and whole nuclei in nine fields of view per well were counted using ImageJ (NIH, Bethesda, MD).

PSAP = assay: Immunodetection (Western blot) of PSAP in neuron-astrocyte co-culture media; assay type: cell-based, Wistar rat; settings: H2O2 stress applied to neurons, Figure S9
primary astrocytes = settings: 5 hr, LDH 24 hr later, PDM
Procedure: Primary cultures of astrocytes were prepared from the cerebral cortices, cerebellum, and brainstem from Wistar rat pups (P2) following protocols described previously (1–3). Briefly, the brains of Wistar P2 pups were dissected out, crudely cross‐chopped and bathed in a solution containing HBSS, DNase I (0.04 mg/mL), trypsin from bovine pancreas (0.25 mg/mL) and BSA (3 mg/mL). The preparation was agitated at 37 °C for 15 min. Trypsinization of the brain tissue was terminated by the addition of equal volumes of culture media comprised of DMEM, 10% heat‐inactivated FBS, 100 U/mL penicillin, and 0.1 mg/mL streptomycin and then centrifuged at 2000 rpm, at room temperature (RT) for 10 min. The supernatant was aspirated, and the remaining pellet was resuspended in 15 mL HBSS containing BSA (3 mg/mL) and DNase I (0.04 mg/mL) and triturated gently. After the cell debris had settled, the cell suspension was filtered through a 40‐μm cell strainer (BD Falcon, BD Biosciences, Franklin Lakes, NJ) and cells were collected after centrifugation. Cells were seeded in a T75 flask containing culture media (see above) and maintained at 37 °C with 5% CO2. Once the cultures reached confluence and 1 week later, the flasks were mildly shaken overnight to remove microglia and oligodendrocytes. When astrocytes were seeded for experiments, media was changed to DMEM supplemented with 5% FBS instead of 10% FBS.
Lactate dehydrogenase (LDH) release from damaged cells was assessed colorimetrically with LDH Cytotoxicity Assay Kit (Pierce) according to the manufacturer's instructions. Activity is proportional to colorimetric reduction of tetrazolium salt measured at 490 nm. Cytotoxicity was normalized to maximal LDH activity as released from cells acutely exposed to Triton X‐100, and calculated using the formula: % Cytotoxicity = (Compound‐treated LDH activity – Spontaneous LDH activity)/(Maximum LDH activity – Spontaneous LDH activity) × 100%.
The media was then replaced by fresh PDM with or without TX14(A). Cells were incubated for a further 24 hr before carrying out the LDH reaction on 50 μL of media.

GPR37L1/GPR37 = assay: Luminescence-based GloSensor cAMP assay in astrocytes; assay type: cell-based, Wistar rat; settings: NKH477 1 μM, rat astrocytes
Procedure: The GloSensor assay uses genetically encoded biosensor variants with cAMP binding domains fused to mutant forms of Photinus pyralis luciferase. The luminescence of the reporter increases directly proportionally to the amount of cAMP present. Astrocytes were seeded in 96‐well plates and transduced with an AVV bearing the CMV‐driven GLO22F at multiplicity of infection (MOI) 10. After 24 hr transduction, media was exchanged for 100 μL HEPES‐buffered HBSS (pH 7.6). Cells were then incubated with 0.731 mM beetle luciferin for 2 hr in the dark. After baseline reading, NKH477 and/or TX14(A) were added to the wells and incubated for 20 min. Luminescence measurements were obtained using a Tecan microplate reader (Infinite M200 PRO).

[3] = target: GPR37 (rat, endogenous in astrocytes) (rat (endogenous in primary astrocytes)) (UniProt Q9QYC6)
GPR37 (rat, endogenous in astrocytes) (rat (endogenous in primary astrocytes)), sequence (Q9QYC6 27-603): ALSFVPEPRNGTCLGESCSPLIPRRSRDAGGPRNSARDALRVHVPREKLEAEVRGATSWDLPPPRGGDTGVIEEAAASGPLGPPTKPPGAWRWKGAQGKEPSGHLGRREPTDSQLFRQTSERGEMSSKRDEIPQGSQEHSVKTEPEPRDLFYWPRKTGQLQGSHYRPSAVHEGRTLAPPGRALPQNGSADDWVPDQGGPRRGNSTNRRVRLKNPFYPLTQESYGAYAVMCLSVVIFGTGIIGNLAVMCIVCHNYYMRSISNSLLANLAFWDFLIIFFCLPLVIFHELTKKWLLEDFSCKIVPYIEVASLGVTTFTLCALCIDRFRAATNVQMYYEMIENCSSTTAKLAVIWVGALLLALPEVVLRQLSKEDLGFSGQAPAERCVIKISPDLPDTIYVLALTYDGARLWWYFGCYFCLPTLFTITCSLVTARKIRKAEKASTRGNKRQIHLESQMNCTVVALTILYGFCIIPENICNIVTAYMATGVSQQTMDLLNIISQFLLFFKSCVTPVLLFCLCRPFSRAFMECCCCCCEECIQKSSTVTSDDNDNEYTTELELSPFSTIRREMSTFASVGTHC

[4] = target: GPR37L1 (rat, endogenous in astrocytes) (rat (endogenous in primary astrocytes)) (UniProt Q9QYC5)
GPR37L1 (rat, endogenous in astrocytes) (rat (endogenous in primary astrocytes)), sequence (Q9QYC5 25-481): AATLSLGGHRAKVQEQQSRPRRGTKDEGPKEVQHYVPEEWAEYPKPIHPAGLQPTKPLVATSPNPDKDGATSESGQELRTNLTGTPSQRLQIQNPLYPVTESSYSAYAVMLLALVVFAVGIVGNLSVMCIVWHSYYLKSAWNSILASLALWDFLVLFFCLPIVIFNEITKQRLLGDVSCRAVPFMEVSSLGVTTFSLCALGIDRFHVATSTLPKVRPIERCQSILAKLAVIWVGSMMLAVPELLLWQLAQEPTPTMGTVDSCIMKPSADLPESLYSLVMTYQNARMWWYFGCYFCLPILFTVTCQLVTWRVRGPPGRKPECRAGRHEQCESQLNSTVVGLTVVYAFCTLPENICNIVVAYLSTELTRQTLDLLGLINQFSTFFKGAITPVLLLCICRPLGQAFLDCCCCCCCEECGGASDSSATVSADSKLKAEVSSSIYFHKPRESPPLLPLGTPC

neuroblastoma NS20 line [5] = target: neuroblastoma NS20 line; design: method as in O'Brien et al., 1994; settings: radio-labeled Sap C, ref O'Brien et al., 1994, read-out: Kd of specific binding; cited from earlier work
neuroblastoma NS20 line [6] = tested on: neuroblastoma NS20 line; design: method as in O'Brien et al., 1994; settings: ref O'Brien et al., 1994; cited from earlier work
receptor of ~54 kDa = settings: ref Hiraiwa et al., 1997; cited from earlier work
gerbils = tested on: gerbils; design: method as in Sano et al., 1994; settings: recombinant, chronic icv infusion, ref Sano et al., 1994; cited from earlier work

O=C(Nc1ncnc2c1ncn2[C@@H]1O[C@@H]2COP(=O)(O)O[C@H]2[C@H]1O)c1ccccc1 [6‐BenZ‐cAMP]
wound closure (astrocytes [1]; 6-benz-cAMP 250–1,000 μM, concentration-dependent): greatly slowed down wound closure
cell numbers (DAPI) vs control (astrocytes [2]; 6-BenZ-cAMP 500 μM): significantly decreased cell numbers as compared to control

CO[C@@H]1[C@@H]2OP(=O)(O)OC[C@H]2O[C@H]1n1c(Sc2ccc(Cl)cc2)nc2c(N)ncnc21 [8‐pCPT‐2′‐O‐Me‐cAMP]
wound closure (astrocytes [1]; 8-pCPT-2′-O-Me-cAMP 250–1,000 μM): had no effect
cell numbers (DAPI) vs control (astrocytes [2]; 8-pCPT-2′-O-Me-cAMP 1,000 μM): significantly decreased cell numbers as compared to control

OO [H2O2]
ability of astrocytes to close the wound (astrocytes [1]; H2O2, 5 hr pre-exposure, 48 hr): drastically inhibited their ability to close the wound
PSAP in co-culture media (PSAP): increase in PSAP in co‐culture media in response to H2O2 stress
cytotoxicity (LDH release) (primary astrocytes; H2O2 250 μM): comparable degree of cytotoxicity

C=C[C@@]1(C)CC(=O)[C@]2(O)[C@@]3(C)[C@@H](O)CCC(C)(C)[C@@H]3[C@H](OC(=O)CCN(C)C)[C@H](OC(C)=O)[C@@]2(C)O1.Cl [NKH477]
increase of baseline cAMP levels (GPR37L1/GPR37): ~ 20 fold
cell numbers (DAPI) vs control (astrocytes [2]; NKH477 10 μM): significantly decreased cell numbers as compared to control

C=C(C)[C@H]1Cc2c(ccc3c2O[C@@H]2COc4cc(OC)c(OC)cc4[C@@H]2C3=O)O1 [rotenone]
cytotoxicity (LDH release) (primary astrocytes; rotenone 100 μM): comparable degree of cytotoxicity

CN[C@@H]1C[C@H]2O[C@@](C)([C@@H]1OC)n1c3ccccc3c3c4c(c5c6ccccc6n2c5c31)C(=O)NC4 [staurosporine]
ability of astrocytes to close the wound (astrocytes [1]; staurosporine, 5 hr pre-exposure, 48 hr): drastically inhibited their ability to close the wound
cytotoxicity (LDH release) (primary astrocytes; staurosporine 200 nM): comparable degree of cytotoxicity

prosaptide TX14(A) (peptide)
inhibition of NKH477 (1 μM)-raised cAMP in rat astrocytes, GloSensor luminescence, concentration-response of TX14(A); obliterated by combined knock-down of GPR37L1 and GPR37 [3]: 17.8 nM
percent inhibition of NKH477-mediated cAMP production in rat astrocytes at the maximal concentration of TX14(A) used (200 nM), GloSensor [3]: 40%
inhibition of NKH477 (1 μM)-raised cAMP in rat astrocytes, GloSensor luminescence, concentration-response of TX14(A); obliterated by combined knock-down of GPR37L1 and GPR37 [4]: 17.8 nM
percent inhibition of NKH477-mediated cAMP production in rat astrocytes at the maximal concentration of TX14(A) used (200 nM), GloSensor [4]: 40%

B1: Sap C: Saposin C, fragment of prosaposin (protein, UniProt P07602 311-390, looked up)
Saposin-C: SDVYCEVCEFLVKEVTKLIDNNKTEKEILDAFDKMCSKLPKSLSEECQEVVDTYGSSILSILLEEVSPELVCSMLHLCSG
modifications: Saposin-C
notes: Saposin C, fragment of prosaposin
Kd (neuroblastoma NS20 line [5]): 0.019 nM
neurotrophic activity (neuroblastoma NS20 line [6]): identified as neurotrophic factors
interaction with receptor (molecular mass) (receptor of ~54 kDa): interacts with a receptor of ~54 kDa

B2: PSAP: prosaposin, neurotrophic factor, precursor of Saposin C (protein)
chain: SPVLGLRECTRGSAVWCQNVKTAADCGAVQHCLQTVWSKPTVKSLPCDICKDVITAAGNLLKDNATEQEILMYLERTCDWLPKPNMSASCKEIVDSYLPVILDMIKGQMSHPGEVCSALNLCESLQKHLAELNHQKQLESNQIPELDMAEVVAPFMANIPFLLYPQDGSHSKPQPKKANGNVCQDCIQLVTDVQEALRTNSTFVEALVDHAKEECDRLGPGMSDMCKNYINQYSEVAIQMVMHMQPKEICVLAGFCDEVKEMPMKTLVPAEVVSENVIPALGLVEPIKKDPAPAKADIYCEVCEFVVKEVAKLIDNNRTEEEILHALDKVCSKLPTSLAEQCQEVVDTYGSSILSILLDEASPELVCSMLHLCSSRGLPAATVRVMPRKDGGFCEVCKKLVGYLDRNLEKNSTKEQILAALEKGCSFLPDQYRKQCDQFVTEYEPVLIEILVEVMDPSFVCLKIGACPAAHKPLLGAEKCVWGPSYWCQNMESAALCNAVEHCRRHVWN
wound closure after PSAP depletion (astrocytes [1]; PSAP depleted by immunoadsorption vs FBS-containing media, 48 hr): drastically slowed down by PSAP depletion
number of cells in cultures (DAPI) (astrocytes [2]; TX14(A) 100 nM in PDM, or PSAP depletion, n = 15): neither depletion of PSAP nor addition of TX14(A) affected the number of cells in cultures
neurotrophic activity (neuroblastoma NS20 line [6]): identified as neurotrophic factors
ischemia-induced learning deficits and neuronal loss (gerbils): almost completely prevented ischemia‐induced learning deficits and neuronal loss
